“And” between values parts separate entries of the source, which are not always exact repeats. Identical values can stand only once. “Also recorded” adds a separate entry of the source.
Key:
[1] = test system: acute myocardial infarction; test: Acute myocardial infarction in anesthetized dogs, oral (intragastric) administration; format: in vivo; settings: for weight of infarct myocardium: N-BT staining; for Weight of IM/Weight of LH: in % (unit assumed); for LDH: serum, 180 min; for ΔST: surface ECG, by row: r6 before, r7-r12 5,15,30,60,90,120 min after administration
Description: Drugs were administered intragastrically in equal volume at unequal concentration. […] After weighing, animals were anesthetized with 3% pentobarbital sodium iv at the dose of 30 mg/kg. Tracheal intubation was performed and anesthesia respirator (SC-M5, manufactured by Shanghai Medical Instrument Factory) was connected for mechanical ventilation (18 20 per min with tidal volume of 350 550 ml) after thoracotomy. Needle electrodes were punctured into four limbs and under chest skin for monitoring standard limb lead and V3 and ECG. Thoracotomy was performed at the third intercostal space of left sternal border and the fourth rib was removed for full exposure of heart. The pericardium was cut open to make a pericardium hammock. The coronary artery was dissociated from between the second and third branches of left anterior descending coronary artery, underneath which pass through silk threads for two-step ligation. On surface of heart were placed 30-point epicardial leads, to which four limbs were connected through needle-electrodes, which were in turn connected to Powerlab/8s (AD Instruments) with a multichannel switcher to record epicardial electrogram. Animal models of acute myocardial ischemia were prepared with the method of two-step ligation. […] NBT). While other part of myocardium was dyed to blue-black, the Infarct myocardium would not be colorated, which was then cut off and weighted. The results of experiment were shown in x±s and statistics were checked with t-test of non-matched pair. When p<0.05, it was judged that the differences were statistically significant.

[2] = test system: chronic myocardial ischemia; test: Chronic myocardial ischemia in rats, intragastric administration; format: in vivo, SD rats; settings: TSG 20 mg/kg intragastric, 6 weeks
Description: (1) Operation and Coronary artery ligation of Animal: 60 male SD rats, divided into two groups: 15 in sham operation group and 45 in operation group, were immobilized on their backs by anesthesia of urethane ip at the dose of 100 mg/kg. Electrocardiograph (ECG-6851C, made by Shanghai Photoelectrical & Electronic Medical Apparatus Co., Ltd.) was used to record II lead electrocardiogram. Tracheal intubation was performed and connected into an artificial respirator and thoracotomy was performed at the fourth intercostal space of left sternal border after the skin sterilization. With exposure of the heart, the ligation was conducted at 3-4 mm of the root of left anterior descending coronary artery. ECG was monitored during the whole process and the graph showing significant elevation and depression of ST segment as well as the elevated T-wave amplitude was viewed as the indexes for the success of coronary artery ligation. After the ligation, thorax was closed and the air was drawn out. Regular feeding was continued after the operation, and the intramuscular injection of Penicillin was performed to prevent infection in 1 week after the operation. Thoracotomy was performed in sham operation group without coronary artery ligation.
(2) Groups and administration: 5 weeks later, there were 11 rats survived in sham operation group, and 24 rats in operation group. […] Starting from the sixth week, drugs were administered 6 days per week, and continued for 6 weeks, but withdrawn on Sundays. The volume of the drug administered was 5 ml/kg.
(1) Evaluation of therapeutic effect: Therapeutic effect was evaluated at the 12th week after the operation. 30 min after the final administration, rats were immobilized on their backs and tracheal intubation was performed. Arteria Femoralis was separated or insertion of a catheter to record artery blood pressure. A cardiac catheter was inversely guided into left ventricular from right common carotid artery. Both catheters were connected with pressure sensor, and then the pressure signals were input into an electrophysiolograph Powerlab system 8s (ML785/8S, AD Instruments, made in Australia) after being amplified with carriers. Needle electrodes were subcutaneously inserted into four limbs to monitor the standard two lead ECG. A computer (chart4.12 software, ML785/8S, AD Instruments, made in Australia) was used to monitor and store data. Thirty min after the operation, heart rate (HR), blood pressure (BPm), left ventricular systolic pressure (LVSP), left ventricular diastolic pressure (LVDP), the maximal rate of left intraventricular pressure changes (+dp/dtmax), left ventricular end-diastolic pressure (LVEDP), ECG were observed. One hour later, animals were executed, and their left ventriculars were taken out. The left hearts were cut into slices of 5 mm in thickness, which were cleaned with normal saline and put into 0.025% nitroblue tetrazolium (N-BT, made by Swiss Fluka Chemistry Company) at 37° C. for staining. Normal myocardium was dyed into dark blue, and the myocardium in infarction area was not dyed, remaining still light-yellow. The infarction area was isolated from normal myocardium under an anatomic microscopy and the both weighed, separatively. The percentage (%) of the weight of infarct area to the weight of the whole was regarded as the index for measurement of the area of myocardial infarction.
Test results was expressed in x±s. […]

[3] = Pharmacokinetics of single-dose iv in Beagle dogs; settings: for maximum plasma drug concentration: dogs;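 as to all read-outs here: plasma levels in healthy adult Beagle dogs, five per dose group, after slow forelimb iv injection over 5 min, parameters from non-compartmental statistical moment analysis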
Description: Pharmacokinetical studies were carried out in three groups at the doses of 10 mg/Kg, 20 mg/Kg and 30 mg/Kg. Five healthy adult Beagle dogs were chosen into each dose group. […] The intravenous injection was performed in one forelimb of each tested dog within 5 min in a very slow manner. Three hours after the intravenous injection, the dogs could be fed. 3 ml of venous blood was sampled in heparinized tubes from another forelimb of each tested dog before and 0, 5, 10, 20, 40, 60, 90, 120, 180, 240, 300, 360 and 480 min after administration. Blood samples were centrifuged to obtain 1 ml of plasma.
Non compartmental modeling method (statistical moment) was applied in the data analysis. Estimating formula of corresponding parameters is as follows:
AUC0˜τ=Σ(Ci+Ci−1)×(ti−ti−1)/2
AUC0˜∞=Σ(Ci+Ci−1)×(ti−ti−1)/2+Cn/λ
AUMC0˜∞=Σ(Citi+Ci−1ti−1)×(ti−ti−1)/2+Cn(1/λ^2+tn/λ)
Where, in the formula, λ indicates the number of terminal eliminating rate of the concentration-time curve. tn and Cn represent the latest time of blood-sampling and plasma drug concentration, respectively. Pharmacokinetical parameters such as tmax and Cmax take the corresponding measuring value of plasma samples.
These pharmacokinetic parameters are obtained with non compartmental modeling method.

[4] = Beagle dogs, single dose iv, 10 mg/Kg, non compartmental
[5] = Beagle dogs, single dose iv, 20 mg/Kg, non compartmental
[6] = Beagle dogs, single dose iv, 30 mg/Kg, non compartmental

## 3,4′,5-trihydroxy-stilbene-3-β-D-glucoside [TSG]
[1]; TSG 5 mg/kg oral
  weight of infarct myocardium: 5.98 ± 1.71 g
  Weight of IM/Weight of LH: 10.8 ± 2.81
  LDH: 159 ± 80.4 IU/L
[1]; TSG 5 mg/kg oral, 5 min after administration
  ΔST: 0.70 ± 0.50 mV
[1]; TSG 5 mg/kg oral, 15 min after administration
  ΔST: 0.71 ± 0.48 mV
[1]; TSG 5 mg/kg oral, 30 min after administration
  ΔST: 0.73 ± 0.51 mV
[1]; TSG 5 mg/kg oral, 60 min
  ΔST: 0.88 ± 0.54 mV
[1]; TSG 5 mg/kg oral, 90 min after administration
  ΔST: 0.82 ± 0.49 mV
[1]; TSG 5 mg/kg oral, 120 min after administration
  ΔST: 0.86 ± 0.52 mV
[1]; TSG 5 mg/kg oral, Before administration
  ΔST: 0.66 ± 0.45 mV
[1]; TSG 10 mg/kg oral
  weight of infarct myocardium: 3.17 ± 0.66 g
  Weight of IM/Weight of LH: 6.61 ± 1.31
  LDH: 140 IU/L
[1]; TSG 10 mg/kg oral, 5 min after administration
  ΔST: 0.68 ± 0.51 mV
[1]; TSG 10 mg/kg oral, 15 min after administration
  ΔST: 0.69 ± 0.52 mV
[1]; TSG 10 mg/kg oral, 30 min after administration
  ΔST: 0.69 ± 0.45 mV
[1]; TSG 10 mg/kg oral, 60 min
  ΔST: 0.70 ± 0.44 mV
[1]; TSG 10 mg/kg oral, 90 min after administration
  ΔST: 0.75 ± 0.46 mV
[1]; TSG 10 mg/kg oral, 120 min after administration
  ΔST: 0.81 ± 0.52 mV
[1]; TSG 10 mg/kg oral, Before administration
  ΔST: 0.55 ± 0.40 mV
[1]; TSG 20 mg/kg oral
  weight of infarct myocardium: 2.31 ± 0.70 g
  Weight of IM/Weight of LH: 4.03 ± 0.61
  LDH: 120 IU/L
[2]
  +dp/dt max: 1389 ± 142^Δ Kpa/s
  BP: 19.2 ± 1.8^Δ KPa
  HR: 354 ± 45^Δ p/min
  LVEDP: 0.82 ± 0.19^Δ KPa
  LVSP: 19.8 ± 2.1^Δ KPa
[3]; 10 mg/kg iv
  AUC0~∞: 315.42 ± 60.82 µg·min/mL and 315 µg·min/mL
  terminal elimination half life (t1/2): 2.7978 ± 2.8483 h and 2.8 h
[3]; 20 mg/kg iv
  AUC0~∞: 745.75 ± 175.84 µg·min/mL and 745 µg·min/mL
  terminal elimination half life (t1/2): 2.5175 ± 0.9553 h and 2.53 h
[3]; 30 mg/kg iv
  AUC0~∞: 1552.71 ± 227.28 µg·min/mL and 1552 µg·min/mL
  terminal elimination half life (t1/2): 6.2182 ± 6.2163 h and 6.22 h
  maximum plasma drug concentration: 100 µg/mL
[3]; 30 mg/kg iv, listed as 3,4′,5-trihydroxy-stilbene-3-β-D-glucoside
  maximum plasma drug concentration: about 100 μg/ml; also recorded: approximately 0.25 mM
[3]; [4]
  AUC0~480: 283.05 ± 49.85 µg·min/mL
  AUC0~∞: 315.42 ± 60.82 µg·min/mL
  CI: 0.03 ± 0.01 L/min
  MRT: 2.3343 ± 2.0812 h
  Vss: 4.21 ± 3.06 L
  t1/2: 2.7978 ± 2.8483 h
[3]; [5]
  AUC0~480: 718.32 ± 179.10 µg·min/mL
  AUC0~∞: 745.75 ± 175.84 µg·min/mL
  CI: 0.03 ± 0.01 L/min
  MRT: 1.301 ± 0.204 h
  Vss: 2.24 ± 0.78 L
  t1/2: 2.5175 ± 0.9553 h
[3]; [6]
  AUC0~480: 1432.17 ± 349.97 µg·min/mL
  AUC0~∞: 1552.71 ± 227.28 µg·min/mL
  CI: 0.02 ± 0.00 L/min
  MRT: 3.068 ± 4.0013 h
  Vss: 4.25 ± 6.35 L
  t1/2: 6.2182 ± 6.2163 h

Source: patent US20080176810A1, “Use of 3, 4', 5-Trihydroxy-Stilbene-3-Beta-D-glucoside in Prepartion of Medicines For Treating and/or Preventing Ischemic Heart Disease” (SHENZHEN NEPTUNUS PHARMACEUTICAL CO., LTD., priority 2004, published 2008)
